Results taken from US20070149535A1, “Protein kinase inhibitors” (ONCALIS AG, priority 2004, published 2007).

What was measured:
Experiment in all cases: Yeast growth assay, specificity profiling
Assay type in all cases: cell-based
Design in all cases: key: “−” indicates no growth restoration i.e. no activity against the particular kinase; “+”, “++”, and “+++” indicate activity detected by restoration of growth, classified into three categories of potency; “+”, “++”, and “+++” indicate activity detected by restoration of growth, classified into three categories of potency; “+”, “++”, and “+++” indicate activity detected by restoration of growth, classified into three categories of potency
Conditions in all cases: 7 concentrations between 0.2 and 100 μM
VEGFR2 = biological target: T1, VEGFR2 (Homo sapiens, UniProt P35968)
T1 construct: expressed in transfected cells; host or cells: yeast
T1 sequence (P35968 20-1356): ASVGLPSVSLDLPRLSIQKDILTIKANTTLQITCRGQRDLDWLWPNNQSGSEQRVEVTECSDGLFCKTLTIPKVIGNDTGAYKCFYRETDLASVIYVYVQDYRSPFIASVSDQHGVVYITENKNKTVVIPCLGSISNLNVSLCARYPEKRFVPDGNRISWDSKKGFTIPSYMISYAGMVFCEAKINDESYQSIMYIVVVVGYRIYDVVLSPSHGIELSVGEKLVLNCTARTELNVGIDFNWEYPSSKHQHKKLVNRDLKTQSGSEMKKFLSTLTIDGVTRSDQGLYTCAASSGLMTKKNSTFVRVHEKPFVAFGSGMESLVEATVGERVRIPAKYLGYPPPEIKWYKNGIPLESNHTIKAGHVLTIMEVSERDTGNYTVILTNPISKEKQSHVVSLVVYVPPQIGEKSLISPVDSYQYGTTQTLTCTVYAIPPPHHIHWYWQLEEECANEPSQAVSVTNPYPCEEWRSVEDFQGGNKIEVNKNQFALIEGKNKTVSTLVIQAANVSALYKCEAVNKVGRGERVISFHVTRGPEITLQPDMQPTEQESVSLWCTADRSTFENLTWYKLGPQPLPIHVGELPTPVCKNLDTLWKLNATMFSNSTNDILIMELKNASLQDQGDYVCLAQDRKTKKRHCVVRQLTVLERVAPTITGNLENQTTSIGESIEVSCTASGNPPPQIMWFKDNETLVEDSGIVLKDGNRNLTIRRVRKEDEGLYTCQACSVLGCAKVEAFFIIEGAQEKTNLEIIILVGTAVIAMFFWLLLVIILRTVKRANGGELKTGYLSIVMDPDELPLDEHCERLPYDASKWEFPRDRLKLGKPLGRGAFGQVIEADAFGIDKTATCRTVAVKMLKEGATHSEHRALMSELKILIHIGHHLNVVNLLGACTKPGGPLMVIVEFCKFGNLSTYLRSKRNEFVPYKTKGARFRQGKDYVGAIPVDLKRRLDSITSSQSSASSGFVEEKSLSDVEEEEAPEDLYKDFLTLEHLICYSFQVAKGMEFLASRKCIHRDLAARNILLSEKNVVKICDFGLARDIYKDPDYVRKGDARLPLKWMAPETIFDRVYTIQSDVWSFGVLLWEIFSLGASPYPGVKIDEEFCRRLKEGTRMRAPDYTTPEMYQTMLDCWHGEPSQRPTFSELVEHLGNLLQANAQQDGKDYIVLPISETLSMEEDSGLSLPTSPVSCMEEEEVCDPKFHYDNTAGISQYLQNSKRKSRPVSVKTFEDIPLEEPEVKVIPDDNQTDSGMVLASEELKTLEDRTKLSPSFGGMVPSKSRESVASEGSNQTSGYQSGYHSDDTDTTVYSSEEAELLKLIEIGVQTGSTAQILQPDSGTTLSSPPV
Method: (§1) Specificity Profiling: Yeast Growth Assay
(§2) The yeast growth assay was performed as described in “Method for the identification and/or validation of receptor tyrosine kinase inhibitors” PCT/CH03/00694 (2004/10/24), section “Modes for Carrying out the Invention, Experiment 1 and Experiment 2.
(§3) Briefly, yeast cells carrying plasmids with the RTK of interest were grown in glucose containing medium (repressing expression). The cultures were diluted into galactose containing medium, which induces the expression of the kinase. Expression of the kinase inhibits growth of the yeast cells, which allows for positive selection of kinase inhibitors restoring growth of cells. Compounds were titrated at 7 concentrations between 0.2 and 100 μM.
(§4) Specificity profiling of compounds, using the yeast growth assay method described above. “−” indicates no growth restoration i.e. no activity against the particular kinase, “+”, “++”, and “+++” indicate activity detected by restoration of growth, classified into three categories of potency according to the maximal level of growth restoration reached and the concentration at which the maximal growth restoration is reached.

RET = biological target: T2, RET (Homo sapiens, UniProt P07949)
T2 construct: expressed in transfected cells; host or cells: yeast
Method: as §1, §2, §3, §4

EphB4 = biological target: T3, EphB4 (Homo sapiens, UniProt P54760)
T3 construct: expressed in transfected cells; host or cells: yeast
T3 sequence (P54760 16-987): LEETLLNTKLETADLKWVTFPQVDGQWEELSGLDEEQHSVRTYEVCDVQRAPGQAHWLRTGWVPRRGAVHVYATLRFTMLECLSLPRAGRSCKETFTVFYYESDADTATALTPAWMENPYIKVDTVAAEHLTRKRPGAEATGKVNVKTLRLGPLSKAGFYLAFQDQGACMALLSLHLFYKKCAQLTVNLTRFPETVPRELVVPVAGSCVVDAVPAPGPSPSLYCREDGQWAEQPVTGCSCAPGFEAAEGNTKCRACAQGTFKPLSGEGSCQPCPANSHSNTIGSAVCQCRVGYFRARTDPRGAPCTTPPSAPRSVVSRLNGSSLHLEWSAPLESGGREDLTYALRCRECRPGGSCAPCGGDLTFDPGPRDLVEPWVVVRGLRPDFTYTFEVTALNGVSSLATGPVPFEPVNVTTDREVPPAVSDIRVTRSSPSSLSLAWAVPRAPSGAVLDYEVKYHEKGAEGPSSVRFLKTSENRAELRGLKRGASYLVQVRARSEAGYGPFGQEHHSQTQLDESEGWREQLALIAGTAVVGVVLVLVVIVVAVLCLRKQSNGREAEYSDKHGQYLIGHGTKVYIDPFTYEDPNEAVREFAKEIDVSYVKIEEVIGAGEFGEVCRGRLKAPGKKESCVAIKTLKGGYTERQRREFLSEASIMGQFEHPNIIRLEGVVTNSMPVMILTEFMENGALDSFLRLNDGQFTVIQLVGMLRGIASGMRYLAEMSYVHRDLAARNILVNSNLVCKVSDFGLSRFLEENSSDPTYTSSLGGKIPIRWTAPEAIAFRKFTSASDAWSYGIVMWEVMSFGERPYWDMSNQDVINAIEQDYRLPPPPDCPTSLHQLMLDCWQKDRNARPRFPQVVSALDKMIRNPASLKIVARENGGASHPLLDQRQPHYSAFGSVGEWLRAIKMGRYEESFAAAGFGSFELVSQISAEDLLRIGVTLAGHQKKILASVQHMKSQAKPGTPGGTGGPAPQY
Method: as §1, §2, §3, §4

InsR = biological target: T4, InsR (Homo sapiens, UniProt P06213)
T4 construct: expressed in transfected cells; host or cells: yeast
Method: as §1, §2, §3, §4

IGF-1R = biological target: T5, IGF-1R (Homo sapiens, UniProt P08069)
T5 construct: expressed in transfected cells; host or cells: yeast
T5 sequence (P08069 31-1367): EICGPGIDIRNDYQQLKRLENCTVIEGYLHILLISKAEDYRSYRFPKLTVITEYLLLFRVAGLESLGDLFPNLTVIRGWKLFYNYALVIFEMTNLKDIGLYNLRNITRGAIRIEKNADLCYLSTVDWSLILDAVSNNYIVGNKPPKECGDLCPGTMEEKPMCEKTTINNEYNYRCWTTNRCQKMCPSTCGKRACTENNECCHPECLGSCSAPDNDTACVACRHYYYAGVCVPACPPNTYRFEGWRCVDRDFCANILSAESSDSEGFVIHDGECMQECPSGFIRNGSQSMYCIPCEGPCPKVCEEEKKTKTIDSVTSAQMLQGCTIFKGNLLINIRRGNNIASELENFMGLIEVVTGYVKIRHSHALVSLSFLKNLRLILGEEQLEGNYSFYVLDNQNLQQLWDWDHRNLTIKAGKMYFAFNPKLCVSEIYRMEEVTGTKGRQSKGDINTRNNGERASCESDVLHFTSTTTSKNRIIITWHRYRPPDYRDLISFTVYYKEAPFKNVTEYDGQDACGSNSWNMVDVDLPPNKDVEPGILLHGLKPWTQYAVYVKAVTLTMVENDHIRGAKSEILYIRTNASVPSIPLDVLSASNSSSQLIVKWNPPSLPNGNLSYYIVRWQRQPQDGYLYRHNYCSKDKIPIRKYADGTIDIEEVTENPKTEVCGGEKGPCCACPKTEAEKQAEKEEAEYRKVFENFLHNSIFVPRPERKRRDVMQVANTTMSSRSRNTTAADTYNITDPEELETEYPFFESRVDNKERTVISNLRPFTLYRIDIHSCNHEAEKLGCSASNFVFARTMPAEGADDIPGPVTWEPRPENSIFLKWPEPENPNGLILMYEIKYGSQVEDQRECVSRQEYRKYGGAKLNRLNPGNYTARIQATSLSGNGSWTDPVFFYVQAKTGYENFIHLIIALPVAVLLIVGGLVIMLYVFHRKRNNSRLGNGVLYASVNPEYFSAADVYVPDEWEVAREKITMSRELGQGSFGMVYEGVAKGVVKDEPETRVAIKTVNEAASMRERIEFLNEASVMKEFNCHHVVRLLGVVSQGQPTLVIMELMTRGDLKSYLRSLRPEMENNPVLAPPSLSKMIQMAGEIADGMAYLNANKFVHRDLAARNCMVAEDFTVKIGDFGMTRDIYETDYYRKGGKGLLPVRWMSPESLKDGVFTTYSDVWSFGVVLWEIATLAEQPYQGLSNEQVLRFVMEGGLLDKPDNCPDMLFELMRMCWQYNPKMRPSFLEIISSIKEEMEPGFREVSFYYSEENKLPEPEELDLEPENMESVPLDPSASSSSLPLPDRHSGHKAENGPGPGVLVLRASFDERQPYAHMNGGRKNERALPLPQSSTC
Method: as §1, §2, §3, §4

VEGFR1 = biological target: T6, VEGFR1 (Homo sapiens, UniProt P17948)
T6 construct: expressed in transfected cells; host or cells: yeast
T6 sequence (P17948 27-1338): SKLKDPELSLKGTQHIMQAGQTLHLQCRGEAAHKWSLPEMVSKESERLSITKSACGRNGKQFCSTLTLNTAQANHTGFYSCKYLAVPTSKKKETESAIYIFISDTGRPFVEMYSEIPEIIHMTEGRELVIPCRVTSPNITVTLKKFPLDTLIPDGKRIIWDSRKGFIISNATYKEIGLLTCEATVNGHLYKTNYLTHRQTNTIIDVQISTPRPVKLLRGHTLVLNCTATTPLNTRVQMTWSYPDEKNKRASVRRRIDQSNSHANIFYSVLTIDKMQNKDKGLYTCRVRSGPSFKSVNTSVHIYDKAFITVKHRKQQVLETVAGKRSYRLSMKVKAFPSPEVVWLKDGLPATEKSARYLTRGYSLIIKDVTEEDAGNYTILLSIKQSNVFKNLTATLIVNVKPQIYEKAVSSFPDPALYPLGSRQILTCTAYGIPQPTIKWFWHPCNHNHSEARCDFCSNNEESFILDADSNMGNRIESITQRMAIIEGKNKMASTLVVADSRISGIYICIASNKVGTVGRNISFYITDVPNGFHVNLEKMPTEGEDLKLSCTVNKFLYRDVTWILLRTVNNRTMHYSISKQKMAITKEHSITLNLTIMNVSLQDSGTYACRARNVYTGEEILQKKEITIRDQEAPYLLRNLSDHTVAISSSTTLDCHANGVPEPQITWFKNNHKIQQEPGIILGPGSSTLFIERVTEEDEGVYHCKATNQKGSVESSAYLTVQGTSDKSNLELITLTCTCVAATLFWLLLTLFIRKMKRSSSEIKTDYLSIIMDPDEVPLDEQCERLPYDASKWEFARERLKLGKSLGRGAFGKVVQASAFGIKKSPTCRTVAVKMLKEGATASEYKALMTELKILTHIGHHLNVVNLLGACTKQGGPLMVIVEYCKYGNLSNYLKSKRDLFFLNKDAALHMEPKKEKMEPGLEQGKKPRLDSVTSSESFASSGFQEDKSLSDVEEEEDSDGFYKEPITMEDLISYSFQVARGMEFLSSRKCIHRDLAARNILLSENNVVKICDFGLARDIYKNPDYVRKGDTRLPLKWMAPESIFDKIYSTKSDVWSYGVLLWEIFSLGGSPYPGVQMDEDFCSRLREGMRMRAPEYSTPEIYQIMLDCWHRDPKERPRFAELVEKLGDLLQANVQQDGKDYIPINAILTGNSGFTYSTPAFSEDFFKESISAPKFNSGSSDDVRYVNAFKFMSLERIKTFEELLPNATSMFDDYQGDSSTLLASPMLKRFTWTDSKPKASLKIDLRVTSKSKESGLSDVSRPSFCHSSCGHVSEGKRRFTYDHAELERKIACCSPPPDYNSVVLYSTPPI
Method: as §1, §2, §3, §4

FGFR-3 = biological target: T7, FGFR-3 (Homo sapiens, UniProt P22607)
T7 construct: expressed in transfected cells; host or cells: yeast
T7 sequence (P22607 23-806): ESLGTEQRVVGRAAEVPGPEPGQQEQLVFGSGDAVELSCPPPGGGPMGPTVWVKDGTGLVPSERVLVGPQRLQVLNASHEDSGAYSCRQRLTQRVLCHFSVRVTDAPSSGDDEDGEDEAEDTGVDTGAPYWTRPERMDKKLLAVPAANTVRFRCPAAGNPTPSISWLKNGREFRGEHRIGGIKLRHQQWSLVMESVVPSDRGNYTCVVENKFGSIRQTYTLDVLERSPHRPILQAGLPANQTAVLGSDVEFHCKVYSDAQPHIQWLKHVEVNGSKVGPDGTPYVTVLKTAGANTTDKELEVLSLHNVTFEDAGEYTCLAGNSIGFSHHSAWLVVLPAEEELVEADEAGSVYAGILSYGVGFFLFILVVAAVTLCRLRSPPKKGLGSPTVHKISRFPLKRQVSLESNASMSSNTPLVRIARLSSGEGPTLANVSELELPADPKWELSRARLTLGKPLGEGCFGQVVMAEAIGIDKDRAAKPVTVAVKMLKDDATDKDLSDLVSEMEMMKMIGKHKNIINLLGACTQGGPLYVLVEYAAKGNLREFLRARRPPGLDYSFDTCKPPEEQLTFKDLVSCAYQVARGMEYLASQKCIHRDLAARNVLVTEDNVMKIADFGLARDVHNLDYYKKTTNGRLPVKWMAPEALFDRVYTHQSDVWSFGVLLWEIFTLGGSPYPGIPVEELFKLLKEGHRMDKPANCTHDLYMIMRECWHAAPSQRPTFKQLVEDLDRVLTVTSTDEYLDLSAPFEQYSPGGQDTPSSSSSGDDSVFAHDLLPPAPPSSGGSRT
Method: as §1, §2, §3, §4

SMILES	VEGFR2 growth restoration (VEGFR2)	RET growth restoration (RET)	EphB4 growth restoration (EphB4)	InsR growth restoration (InsR)	IGF-1R growth restoration (IGF-1R)	VEGFR1 growth restoration (VEGFR1)	FGFR-3 growth restoration (FGFR-3)
c1ccc(Nc2c(-c3ccc(N4CCOCC4)cc3)nc3cnccn23)cc1 [compound 38, [2-(4-Morpholin-4-yl-phenyl)-imidazo[1,2-a]pyrazin-3-yl]-phenyl-amine]	−	−	++	+	−	+	
Cc1nccn2c(Nc3ccccc3)c(-c3ccccc3)nc12 [compound 39, (8-Methyl-2-phenyl-imidazo[1,2-a]pyrazin-3-yl)-phenyl-amine]	−	+	+++	−	−	−	−
COc1cccc(-c2nc3c(C)nccn3c2Nc2cccc(Cl)c2)c1 [compound 48, (3-Chloro-phenyl)-[2-(3-methoxy-phenyl)-8-methyl-imidazo[1,2-a]pyrazin-3-yl]-amine]	−	−	++	−	−	−	
COc1cccc(-c2nc3c(C)nccn3c2Nc2cccc(C)c2)c1 [compound 42, [2-(3-Methoxy-phenyl)-8-methyl-imidazo[1,2-a]pyrazin-3-yl]-m-tolyl-amine]	−	−	++	−	−	−	
CC(C)c1nc2cnccn2c1Nc1cccc(Cl)c1 [compound 12, (3-Chloro-phenyl)-(2-isopropyl-imidazo[1,2-a]pyrazin-3-yl)-amine]	−	−	+	−	−	−	
CC(=O)Nc1ccc(-c2nc3c(C)nccn3c2Nc2cccc(Cl)c2)cc1 [compound 33, N-{4-[3-(3-Chloro-phenylamino)-8-methyl-imidazo[1,2-a]pyrazin-2-yl]-phenyl}-acetamide]	−	−	+++	−	−	−	

Results, then the molecule that gave them:

VEGFR2 growth restoration (VEGFR2)	RET growth restoration (RET)	EphB4 growth restoration (EphB4)	InsR growth restoration (InsR)	IGF-1R growth restoration (IGF-1R)	VEGFR1 growth restoration (VEGFR1)	FGFR-3 growth restoration (FGFR-3)	SMILES
−	−	−	−	−	−	−	Brc1cccc(Nc2c(-c3ccccc3)nc3cnccn23)c1 [compound 14, (3-Bromo-phenyl)-(2-phenyl-imidazo[1,2-a]pyrazin-3-yl)-amine]
−	−	++	−	−	−		CC(=O)Nc1ccc(-c2nc3cnccn3c2Nc2cccc(Cl)c2)cc1 [compound 8, N-{4-[3-(3-Chloro-phenylamino)-imidazo[1,2-a]pyrazin-2-yl]-phenyl}-acetamide]
−	−	++	−	−	−		Fc1ccc(Nc2c(-c3ccccc3)nc3cnccn23)cc1F [compound 30, (3,4-Difluoro-phenyl)-(2-phenyl-imidazo[1,2-a]pyrazin-3-yl)-amine]
−	+	+	−	−	−	−	Clc1cccc(Nc2c(-c3ccccc3)nc3cnccn23)c1 [compound 35, (3-Chloro-phenyl)-(2-phenyl-imidazo[1,2-a]pyrazin-3-yl)-amine]
−	−	−	−	−	−		CNc1nccn2c(Nc3cccc(Cl)c3)c(-c3ccccc3)nc12 [compound 20, N′3-(3-Chloro-phenyl)-N′8-methyl-2-phenyl-imidazo[1,2-a]pyrazine-3,8-diamine]
−	−	+++	−	−	−		Nc1ccc(-c2nc3cnccn3c2Nc2cccc(Cl)c2)cc1 [compound 10, [2-(4-Amino-phenyl)-imidazo[1,2-a]pyrazin-3-yl]-(3-chloro-phenyl)-amine]
−	−	++	−	−	−		Fc1cccc(Nc2c(-c3ccccc3)nc3cnccn23)c1 [compound 26, (3-Fluoro-phenyl)-(2-phenyl-imidazo[1,2-a]pyrazin-3-yl)-amine]
